This is an account of results in publication PMC9304124 (Clinical Pharmacology in Drug Development, 2022).

Usually Tmax stands for the time at which the peak concentration occurs. By half-life is commonly meant the time needed for the level to fall by half in the phase considered. A higher half-life goes with slow decline. Broadly, the EC50 is the concentration that produces a half-maximal response.

Like-named read-outs stand apart in the source and are kept apart here.

The conditions of series [1]: basis for study design, no reference given; cited from earlier work.
Series [2] can be described thus: Steady-state plasma PK of NE and EE, NE/EE given alone or with trametinib (phase 1 DDI study). Conditions: for AUC(0-t): AUClast; for AUC: AUCtau.
Another series deals with phospho‐MEK1. Set-up: method as in PMID 23971497. Conditions: in vitro; read-out: half maximal inhibitory concentration to inhibit phospho‐MEK1; cited from earlier work.
Details of series [3]: method as in PMID 23971497. Conditions: human plasma; cited from earlier work.
A short description of the next series: clinical. The following applies: female, human, plasma, oral.
Series [4] deals with CYP3A4. Set-up: method as in PMID 24748562. Conditions: in vitro; read-out: EC50 for CYP3A4 mRNA induction; cited from earlier work.
The next series has as its system CYP1A2. Set-up: method as in PMID 26347206, PMID 31445021. The following applies: in vitro; cited from earlier work.
The subject of the next series is UGT1A1. Set-up: method as in PMID 26347206, PMID 31445021. Conditions: in vitro; cited from earlier work.
The conditions of series [5]: overall study, N = 19.
A further series concerns CYP2A6. Set-up: method as in PMID 26347206, PMID 31445021. Conditions: in vitro; cited from earlier work.
The conditions of series [6]: cited from earlier work.
The test system of a further series is CYP2D6. Set-up: method as in PMID 26347206, PMID 31445021. Conditions: in vitro; cited from earlier work.
For series [7], the system named is CYP3A4. Set-up: method as in PMID 26347206, PMID 31445021. Conditions: in vitro; cited from earlier work.
Series [8] concerns CYP3A4. The following applies: in vitro, cited from earlier work.
Series [9] in a line: Steady-state plasma PK of trametinib and metabolite M5 when coadministered with NE/EE. Conditions: trametinib 2 mg daily + NE/EE, day 21, plasma. As to the method:
Both regimens were continued until day 21 (Figure 1).
Extracts were analyzed using LC‐MS/MS.

On the set-up of series [10]: method as in Novartis, unpublished data. The following applies: ref Novartis, unpublished data; cited from earlier work.
The test system of the next series is CYP2B6. Set-up: method as in PMID 26347206, PMID 31445021. The following applies: in vitro; cited from earlier work.
Setting [11] is: female, human, plasma, oral, adjusted geo‐mean, NE/EE + T, linear mixed-effects model.
The mark [12] stands for this setting: female, human, plasma, oral, adjusted geo‐mean, NE/EE alone, linear mixed-effects model.
Setting [13] is: female, human, plasma, oral, geo‐mean (geo‐CV%), NE/EE alone, day 5, plasma.
Setting [14] is: female, human, plasma, oral, mean (SD), NE/EE alone, day 5, plasma.

In the case of `C#C[C@]1(O)CC[C@H]2[C@@H]3CCc4cc(O)ccc4[C@H]3CC[C@@]21C` [EE, ethinyl estradiol], the “mean t1/2” value in [1] is 20 h. Besides, the “Ctrough, mean (SD)” value in series [2] (NE/EE alone, day 5, plasma) is on record as 22.2 (12.6) pg/mL. The “AUCtau, adjusted geo‐mean” value in series [2] (NE/EE alone, linear mixed-effects model) is 1.06 ng·h/mL. The AUC(0-t) is 1.07 ng·h/mL in [2] (setting [11]), 1.02 ng·h/mL in series [2] (setting [12]), 0.983 ng·h/mL in series [2] (setting [13]) and 1.15 ng·h/mL in series [2] (setting [14]). The AUC in series [2] (setting [11]) amounted to 1.12 ng·h/mL; in [2] (female, human, plasma, oral, geo‐mean (geo‐CV%), NE/EE alone (1 mg NE/0.035 mg EE daily), day 5, plasma), 1.02 ng·h/mL; in [2] (setting [14]), 1.16 ng·h/mL. In addition, the Cmax in [2] (setting [11]) stood at 0.128 ng/mL; in series [2] (setting [12]) it was 0.14 ng/mL; in series [2] (setting [13]) it was 0.135 ng/mL; in series [2] (setting [14]), 0.151 ng/mL. In addition, in series [2] (female, human, plasma, oral, tmax, median (range), NE/EE alone, day 5, plasma), the Tmax amounted to 0.98 h.

Regarding `Cc1c(=O)n(C)c(Nc2ccc(I)cc2F)c2c(=O)n(C3CC3)c(=O)n(-c3cccc(N)c3)c12` [M5], in the series with phospho‐MEK1, the IC50 was 9 ± 1 nM. For the same molecule, the “share of drug‐related material in plasma” value in series [3] is less than 11%.

`C#C[C@]1(O)CC[C@H]2[C@@H]3CCC4=CC(=O)CC[C@@H]4[C@H]3CC[C@@]21C` [NE, norethindrone]: in the series “clinical”, the Tmax amounted to 1.02 h and the half-life was 9.06 h. For the same molecule, in series [2] (NE/EE alone, day 5, plasma), the “CL/F, geo‐mean (geo‐CV%)” value is recorded as 9.41 (76.9) L/h; the “Ctrough, geo‐mean (geo‐CV%)” value is 1060 (165.5) pg/mL; the “Ctrough, mean (SD)” value was 1940 (2850) pg/mL; the “tmax, median (range)” value is 1.00 (0.50‐24) h. In addition, in series [2] (setting [11]), the AUC(0-t) was 127 ng·h/mL, the AUC was determined as 131 ng·h/mL and the Cmax turned out to be 17.1 ng/mL. Moreover, in series [2] (setting [12]), the AUC(0-t) came to 106 ng·h/mL, the AUC was 110 ng·h/mL and the Cmax was 15.2 ng/mL. Besides, in series [2] (female, human, plasma, oral, t½, median (range), NE/EE alone, day 5, plasma), the half-life was 9.22 h.

Consider `CC(C)(C)c1nc(-c2cccc(NS(=O)(=O)c3c(F)cccc3F)c2F)c(-c2ccnc(N)n2)s1` [dabrafenib], for which the EC50 with CYP3A4 [4] is […].

Take `CC(=O)Nc1cccc(-n2c(=O)n(C3CC3)c(=O)c3c(Nc4ccc(I)cc4F)n(C)c(=O)c(C)c32)c1` [trametinib, Trametinib]: the “CYP1A2 inhibition (in words)” value with CYP1A2 is listed as “no inhibitory activity”. Further, the “UGT1A1 inhibition (in words)” value in the series on UGT1A1 is “inhibitor”. Moreover, in series [5], the “AE of special interest: patients with bleeding events” value was found to be 15.8%, the “AE of special interest: patients with cardiac‐related event” value worked out at 5.3%, the “AE of special interest: patients with hepatic disorders” value came to 26.3% and the “AE of special interest: patients with hypertension” value is listed as 15.8%. Also, the “AE of special interest: patients with skin toxicity” value in series [5] is 63.2%. The “CYP2A6 inhibition (in words)” value in the series with CYP2A6 is recorded as “no inhibitory activity”. Moreover, in series [6] (2 mg once daily), the “peak:trough ratio” value is 1.8 and the “time to reach Cmax (tmax)” value is 1.5 h. Further, the “clinically relevant systemic exposure (concentration)” value in [6] (based on the Cmax of 22.2 ng/mL) was “≈ 0.04 μM”. Moreover, in [6], the intrasubject variability result is given as “more than 30%”. For the same molecule, the “geo‐mean AUC0‐24” value in series [6] (trametinib 2 mg in the absence of COC) is 370 ng·h/mL. Further, the “CYP2D6 inhibition (in words)” value in the series on CYP2D6 is recorded as “no inhibitory activity”. Besides, in the series on CYP3A4 [7], the “CYP3A4 inhibition (in words)” value is listed as “no inhibitory activity”. Moreover, in the series with CYP3A4 [8] (hepatocytes, ref Novartis, unpublished data), the “maximal effect of CYP3A4 induction, % of that of rifampicin” value is 69%. Further, in the series with CYP3A4 [8] (hepatocytes, ref Novartis, unpublished data, read-out: EC50 for CYP3A4 induction), the half-maximal effective concentration (EC50) was 1700 nM. In addition, the “CYP3A4 induction (in words)” value in the series with CYP3A4 [8] was “low‐level inducer”. For the same molecule, the “Cmax, geo‐mean (geo‐CV%)” value in series [9] is reported as 27.4 (35.4) ng/mL. Moreover, the “findings in animal reproduction studies (in words)” value in series [10] is “maternal and developmental toxicities”. The “CYP2B6 inhibition (in words)” value in the series with CYP2B6 is “no inhibitory activity”. For the same molecule, in the series on phospho‐MEK1, the IC50 is 7 ± 0.1 nM.
